Measured values from patent US20240270821A1, “GIP/GLP1/GCG TRI-RECEPTOR AGONISTS AND USES THEREOF” (priority 2023, published 2024).
Marks after values point to notes of the source that are not given here. Starred links: 1 amine or outer side, 2 acyl side, 3 side chain; linkers in the order of their positions; H or OH if unused. Non-standard residues stand in square brackets, D forms with d. Groups on a side chain read outwards from the residue. No end group written: not given here. *: point of attachment. C20 diacid = O=C(O)CCCCCCCCCCCCCCCCCCC(=O)*; C18 diacid = O=C(O)CCCCCCCCCCCCCCCCC(=O)*; γGlu = O=C(O)[C@H](CCC(=O)[*:2])N[*:1]; NMeY = CN[C@@H](Cc1ccc(O)cc1)C(=O)O; αMeF = C[C@](N)(Cc1ccccc1)C(=O)O; 4Pal = N[C@@H](Cc1ccncc1)C(=O)O; αMeL = CC(C)C[C@](C)(N)C(=O)O; Orn = NCCC[C@H](N)C(=O)O; AEEA = NCCOCCOCC(=O)O; Aib = CC(C)(N)C(=O)O

Assays:
human GLP1-R = human GLP1-R (Homo sapiens, UniProt P43220); assay: GLP1-R internalization assay in HEK293 cells; format: cell-based; settings: for EC50: HEK293 cells expressing SNAP-GLP-1R, read-out: GLP1R Internalization EC50; for Internalization % TOP: normalized to maximum concentration of GLP-1 (100%)
hGIPR [1] = target: T1, hGIPR (Homo sapiens, UniProt P48546); assay: Functional cAMP activation in the presence of 0.1% casein (no HSA); format: cell-based; settings: in the presence of 0.1% casein (no HSA); geometric mean; read-out: Relative cAMP EC50, hGIPR;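 note: intracellular cAMP rise after 30 min at 37 °C read by HTRF against a standard curve, scaled between buffer alone (0%) and top control ligand concentration (100%), four-parameter fit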
T1 sequence (P48546 22-466): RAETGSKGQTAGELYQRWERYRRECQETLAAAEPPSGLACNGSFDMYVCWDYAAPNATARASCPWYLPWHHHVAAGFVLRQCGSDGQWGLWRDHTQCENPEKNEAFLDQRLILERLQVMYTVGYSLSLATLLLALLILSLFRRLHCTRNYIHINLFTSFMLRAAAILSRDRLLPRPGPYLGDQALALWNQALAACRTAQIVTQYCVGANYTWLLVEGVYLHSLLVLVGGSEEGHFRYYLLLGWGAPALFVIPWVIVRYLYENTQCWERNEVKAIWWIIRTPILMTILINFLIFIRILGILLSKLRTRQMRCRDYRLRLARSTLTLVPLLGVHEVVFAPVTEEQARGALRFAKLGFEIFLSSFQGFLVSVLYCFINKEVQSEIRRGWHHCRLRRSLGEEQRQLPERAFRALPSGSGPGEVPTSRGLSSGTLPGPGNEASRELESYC

hGcgR = hGcgR (Homo sapiens, UniProt P47871); assay: as above; format: cell-based; settings: in the presence of 0.1% casein (no HSA); geometric mean; read-out: Relative cAMP EC50, hGcgR;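 note: intracellular cAMP rise after 30 min at 37 °C, read by HTRF against a cAMP standard curve, scaled from buffer only (0%) to maximal control ligand response (100%)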
human GcgR = human GcgR (Homo sapiens, UniProt P47871); assay: Functional cAMP activity in the presence of 1% HSA; format: cell-based; settings: read-out: cAMP Rel EC50, hGcgR
hGIPR [2] = target: T1, hGIPR; assay: Functional cAMP activity in the presence of 1% HSA; format: cell-based; settings: read-out: cAMP Rel EC50, hGIPR
[3] = Body weight in diet-induced obese C57BL/6 mice; format: in vivo; settings: percent of starting weight, DIO mice, mean ± SEM n=5
Protocol: To investigate the effect of the polypeptides as described herein on weight loss, exemplary polypeptides are dosed to C57BL/6 diet-induced obese (DIO) mice. Specifically, DIO male C57BL/6 mice (Taconic, Germantown, NY) maintained on a calorie-rich diet are used in the following studies. Mice are individually housed in a temperature-controlled (24° C.) facility with 12-hour light/dark cycle (lights on 22:00) and free access to food (TD95217) and water. After a minimum of 2 weeks acclimation to the facility, the mice are randomized according to their body weight, so each experimental group of animals would have similar starting body weight. The body weights range from 41 to 50 g. All groups contain 5 mice. […] Treatments are administered by subcutaneous (SC) injection (10 mL/kg) to ad libitum fed DIO mice 30 to 90 minutes prior to the onset of the dark cycle either once daily (QD) or once every 3 days (Q3D) for 9-16 days. Body weight and food intake are measured daily throughout the study. Body weight is presented as percent of the starting weight. […] Data are presented as mean±SEM of 5 animals per group in Table 7 below. Statistical analysis is performed using repeated measures ANOVA, followed by Dunnett's method comparison test.

hGLP-1R [4] = target: T2, hGLP-1R (Homo sapiens, UniProt P43220); assay: Functional cAMP activity in the presence of 1% HSA; format: cell-based; settings: read-out: cAMP Rel EC50, hGLP-1R
Target sequence in this assay (P43220 24-463): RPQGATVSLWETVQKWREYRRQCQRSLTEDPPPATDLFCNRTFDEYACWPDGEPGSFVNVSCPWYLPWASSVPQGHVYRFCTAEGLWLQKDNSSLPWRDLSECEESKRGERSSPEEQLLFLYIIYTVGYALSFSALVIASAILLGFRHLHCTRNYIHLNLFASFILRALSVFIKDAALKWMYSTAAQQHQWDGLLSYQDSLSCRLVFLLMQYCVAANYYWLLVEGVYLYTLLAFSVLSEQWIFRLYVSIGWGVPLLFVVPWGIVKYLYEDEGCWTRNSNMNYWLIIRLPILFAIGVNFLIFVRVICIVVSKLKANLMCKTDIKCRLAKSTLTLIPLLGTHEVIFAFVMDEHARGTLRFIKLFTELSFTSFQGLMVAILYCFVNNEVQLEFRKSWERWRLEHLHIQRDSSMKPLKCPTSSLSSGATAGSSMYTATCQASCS

[5] = system: Intestinal organoid from Göttingen minipig jejunum tissue, 2D monolayer; assay: Cell based in vitro permeability (Papp) assay; format: in vitro ADME
Procedure, shortened: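 Papp calculated from LC/MS peptide levels in apical and basal compartments. Basal sampling at 20 min with C10 present, across monolayers grown from dissociated minipig jejunal organoids in transwells.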

hGLP-1R [6] = target: T2, hGLP-1R; assay: Functional cAMP activation in the presence of 0.1% casein (no HSA); format: cell-based; settings: in the presence of 0.1% casein (no HSA); geometric mean; read-out: Relative cAMP EC50, hGLP-1R;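 for Relative cAMP EC50, hGLP-1R: intracellular cAMP rise after 30 min at 37 °C read by HTRF, normalized between buffer only (0%) and maximal control ligand (100%), four-parameter variable-slope fit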;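 for Relative cAMP EC50, hGcgR: intracellular cAMP rise after 30 min at 37 °C, read by HTRF against a cAMP standard curve, scaled from buffer only (0%) to maximal control ligand response (100%)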
Target sequence in this assay (P43220 24-463): as above

hGLP-1R [7] = target: T2, hGLP-1R; assay: GLP-1R CHO cell β-arrestin recruitment assay; format: cell-based; parameters: host or cells: CHO-K1 (PathHunter, assay-ready frozen cells); settings: for EC50: CHO-K1 PathHunter, β-arrestin-2, 0.1% casein, read-out: hGLP1R β-arrestin Rel EC50; for % Stimulation Max: normalized to GLP-1(7-36) as maximum control;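 for all read-outs here: luminescence read after 90 min peptide exposure at 37 °C and a further 60 min with detection reagent at room temperature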
Target sequence in this assay (P43220 24-463): as above
Target sequence in this assay (P32121 whole entry partner): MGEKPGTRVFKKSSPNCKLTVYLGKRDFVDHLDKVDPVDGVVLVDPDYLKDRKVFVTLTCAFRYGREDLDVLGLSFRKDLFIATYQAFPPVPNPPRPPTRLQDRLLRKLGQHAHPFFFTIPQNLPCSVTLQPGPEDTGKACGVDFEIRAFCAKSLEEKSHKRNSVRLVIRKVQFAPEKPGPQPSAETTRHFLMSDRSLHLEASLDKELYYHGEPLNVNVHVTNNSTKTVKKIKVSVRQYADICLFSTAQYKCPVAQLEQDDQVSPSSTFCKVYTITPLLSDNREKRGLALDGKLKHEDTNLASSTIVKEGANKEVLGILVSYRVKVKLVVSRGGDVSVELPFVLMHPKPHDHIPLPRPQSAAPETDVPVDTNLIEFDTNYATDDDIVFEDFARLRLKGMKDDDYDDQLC
Protocol: CHO-KI cells expressing Pro-Link-tagged Human GLP-1R and enzyme-acceptor-tagged β-arrestin-2 may be obtained from DiscoveRx and prepared as assay-ready frozen cells. Test peptides are solubilized in DMSO and serial dilutions are performed using the Echo acoustic dispenser (LabCyte). Assay media is the PathHunter Cell Assay Buffer (DiscoveRx) containing 0.1% w/v hydrolyzed Casein (Sigma). […] Plates are incubated for 90 minutes in a 37′C/5% C02 incubator and 10 μl of PathHunter detection reagent is added (DiscoveRx) and plates are incubated at room temperature for 60 minutes. Luminescence signal is measured. Peptide concentration-response curves fit to a four-parameter logistic model to calculate potency as an EC50.

Sequence of hGcgR (P47871 26-477): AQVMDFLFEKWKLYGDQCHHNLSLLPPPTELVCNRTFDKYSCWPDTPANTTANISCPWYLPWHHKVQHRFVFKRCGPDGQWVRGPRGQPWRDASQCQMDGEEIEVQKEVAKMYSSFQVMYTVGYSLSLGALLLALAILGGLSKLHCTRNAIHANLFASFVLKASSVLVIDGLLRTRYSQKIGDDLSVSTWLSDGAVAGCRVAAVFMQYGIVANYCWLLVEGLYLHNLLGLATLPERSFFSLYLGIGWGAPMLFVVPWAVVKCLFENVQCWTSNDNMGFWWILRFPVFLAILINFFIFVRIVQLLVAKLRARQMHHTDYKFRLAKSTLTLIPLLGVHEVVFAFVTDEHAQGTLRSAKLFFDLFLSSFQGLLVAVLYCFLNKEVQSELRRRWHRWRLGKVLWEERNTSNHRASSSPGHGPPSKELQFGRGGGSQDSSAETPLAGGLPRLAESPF
Sequence of human GcgR (P47871 26-477): as above
Sequence of human GLP1-R (P43220 24-463): as the sequence (P43220 24-463) above

Row | Substance | EC50 (human GLP1-R) | Internalization % TOP (human GLP1-R) | EC50 (hGIPR [1]) | EC50 (hGcgR) | EC50 (human GcgR) | EC50 (hGIPR [2]) | Body weight (%) ([3]; 10 nmol/kg SC Q3D, 14 days) | EC50 (hGLP-1R [4]) | Relative Papp (Compared to internal standard) [5] | EC50 (hGLP-1R [6]) | EC50 (hGLP-1R [7]) | % Stimulation Max (hGLP-1R [7]) | Body weight (%) ([3]; 10 nmol/kg SC QD, 16 days)
1 | H-Y[Aib]QGTFTSDFS[Orn][αMeL]LDKK([AEEA-γGlu-C18 diacid])AQ[Aib]AFIEWLLEGGPSSGAPPPEGS-NH2 [Example 121] | 38.1 nM | 46.3% | 0.172 nM | 4.89 nM | 442 nM | 24.6 nM | 85.58 +/− 3.20**** % | 348 nM | 0.08 | 2.38 nM | – | – | –
2 | H-Y[Aib]QGTFTSDFS[Orn][αMeL]LDKK([AEEA-γGlu-C18 diacid])AQ[Aib]AFIEYLLAGGPSSGAPPPEGS-NH2 [Example 93] | 30.4 nM | 50.8% | 0.162 nM | 7.16 nM | 1390 nM | 27.9 nM | 86.64 +/− 1.94**** % | 397 nM | – | 2.63 nM | – | – | –
3 | H-Y[Aib]QGTFTSDFS[Orn][αMeL]LDKK([AEEA-γGlu-C18 diacid])AQ[Aib]AFIEYLLAGGPSSGEPPPSGS-NH2 [Example 94] | 37.1 nM | 47.2% | 0.154 nM | 8.16 nM | 1220 nM | 21.4 nM | 84.92 +/− 1.79**** % | 480 nM | 0.02 | 2.63 nM | – | – | –
4 | H-Y[Aib]QGTFTSDYSI[αMeL]LDKQAAK([AEEA-AEEA-γGlu-C20 diacid])QFVEWLIA[Aib]GPSSGEPPPAEG-NH2 [Example 334] | 28.3 nM | 96.8% | 0.223 nM | 6.77 nM | 2070 nM | 72.1 nM | 84.78 +/− 2.74**** % | 171 nM | – | 0.707 nM | – | – | –
5 | H-Y[Aib]QGTFTSDYSK[αMeL]LDKK([AEEA-γGlu-C20 diacid])AQQAFVQWLIEGGPSSGEPPPSEG-NH2 [Example 315] | – | – | 0.398 nM | 4.05 nM | 1560 nM | 85.1 nM | 79.76 +/− 1.72**** % | 140 nM | – | 0.508 nM | 3.76 nM | 29.7% | –
6 | H-Y[Aib]QGTFTSD[4Pal]SR[αMeL]LDKK([AEEA-γGlu-C18 diacid])AQ[Aib]AFIEYLLE[Aib]GESSGAPPPSGS-NH2 [Example 132] | 72.7 nM | 67.2% | 0.21 nM | 2.63 nM | 632 nM | 25.9 nM | 98.66 +/− 0.47% | 823 nM | – | 5.72 nM | – | – | –
7 | H-[NMeY][Aib]QGT[αMeF]TSDYSSLLDKIAAK([AEEA-AEEA-γGlu-C20 diacid])AFIEYLLEGGPSSGEPPPSEG-NH2 [Example 297] | – | – | 0.626 nM | 3.26 nM | 2320 nM | 325 nM | – | 1130 nM | – | 2.96 nM | 60.2 nM | 33.5% | 48.42 ± 2.86 %
8 | Y[Aib]QGTFTSDFS[Orn][αMeL]LDKK([AEEA-γGlu-C18 diacid])AQ[Aib]AFIEYLLAGGPSSGEPPPEGE-NH2 [Example 98] | 56 nM | 49.3% | 0.179 nM | 6.91 nM | 867 nM | 33.8 nM | 90.78 +/− 1.26* % | 660 nM | – | 4.35 nM | – | – | –
9 | Y[Aib]QGTFTSDFS[Orn][αMeL]LDKK([AEEA-γGlu-C18 diacid])AQ[Aib]AFIEYLLEGGPSSGAPPPGGS-NH2 [Example 62] | 40.3 nM | 44.9% | 0.146 nM | 3.96 nM | 396 nM | 31.2 nM | 88.05 +/− 1.08*** % | 299 nM | 0.03 | 2.72 nM | – | – | –
